Entries after “also recorded” stand apart in the source; their conditions may differ.
Key:
[1] = tested on: endogenous huntingtin S421 phosphorylation; experiment: Phosphorylation of S421 in primary striatal neurons (Western blot); assay type: cell-based; details: rat striatal neurons, 1 μM FK506
Experimental: (§1) Cell culture, transfection and drug treatments. Primary cultures of striatal neurons were prepared from E17 Sprague Dawley rats and transfected at 4 days in vitro by a modified calcium phosphate technique (Saudou et al., 1998). Mouse neuronal cells derived from wildtype huntingtin mice (neuronal cells, +/+) and from Hdh^Q109 knock-in mice (109Q/109Q) were cultured as previously described (Trettel et al., 2000) and transfected with Lipofectamine 2000 (Invitrogen, Breda, The Netherlands). When cotransfected (FIG. 3A), the ratio 480-17Q/Akt/CaNA-ΔCaM/CaNB was 1:0.5:1:1. Human HEK 293 cells were cultured in DMEM supplemented with 10% bovine calf serum (BCS) and were transfected by the calcium phosphate technique. SHSY-5Y cells and Jurkat T cells were grown in RPMI supplemented with 10% BCS. Jurkat T cells were transferred to tyrodes buffer (137 mM NaCl, 3 mM KCl, 20 mM Hepes, 2 mM MgCl2, 1 mM CaCl2, 5.6 mM glucose, 0.3 mg/ml BSA; 4×10^6 cells/ml) prior addition of FK506 (1 μM) and/or ionomycin (2.5 μM).
(§2) Western blot analysis. After transfection/incubation with drugs, cells were washed with ice cold phosphate-buffered saline prior to scraping and lysis. […] Quantification of the signal was performed by densitometric scanning of the film using ImageJ software.

[2] = molecular target: GST-huntingtin (amino acids 384 to 467 of human huntingtin fused to GST), phosphorylated at S421 by Akt (UniProt P42858)
[3] = tested on: BDNF-containing vesicles transport; experiment: BDNF-containing vesicle transport in primary cortical neurons expressing FL-htt-75Q (videomicroscopy); assay type: cell-based, rat; details: IGF-1 treatment
Experimental: (§3) Videomicroscopy Experiments and Analyses. For videoexperiments rat primary cortical neurons, +/+, and 109Q/109Q cells established from Hdh^Q111 knock-in mouse were prepared, cultured and transfected as previously described (Gauthier et al., 2004; Humbert et al., 2002; Saudou et al., 1998; Trettel et al., 2000). In some cases, primary cultures of cortical neurons are electroporated with the rat neuron Nucleofector® kit according to the supplier's manual (Amaxa, Cologne). Forskolin ([…]; Sigma) and IBMX ([…]; Sigma) were added to the cultures 5 hours after transfection.
(§4) Videomicroscopy experiments were done two or four days after transfection. Cells were co-transfected with BDNF-eGFP and various constructs of htt or the corresponding empty vectors with a DNA ratio of 1:4. Live videomicroscopy was carried out using an imaging system previously detailed (Gauthier et al., 2004). Cells were grown on glass coverslip that was mounted in a Ludin chamber. The microscope and the chamber were kept at 37° C. (33° C. for knock-in cells). Stacks of 10-15 images with a Z-step of 0.3 μm were acquired with a 100× PlanApo N.A. 1.4 oil immersion objective coupled to a piezo device (PI). Images were collected in stream mode using a Cool Snap HQ camera (Ropper Scientific) set at 2×2 binning with an exposure time of 50 to 100 ms (frequency of 2). […]

[4] = tested on: BDNF-containing vesicles transport; experiment: BDNF-containing vesicle transport in 109Q/109Q cells (videomicroscopy); assay type: cell-based, mouse; details: IGF-1 treatment
Experimental: as §3, §4

Parkinson's disease = details: cited from earlier work
[5] = tested on: endogenous huntingtin S421 phosphorylation; experiment: Phosphorylation of endogenous huntingtin at S421 in Jurkat T cells (Western blot); assay type: cell-based, human; details: ionomycin 2.5 μM
Experimental: as §1, §2

[6] = tested on: endogenous huntingtin S421 phosphorylation; experiment: Immunofluorescence of phospho-S421-huntingtin in SHSY-5Y cells transfected with wild-type CaNA/CaNB; assay type: cell-based, human; details: 1 μM ionomycin, 15 min
Experimental: Immunofluorescence experiments. SHSY-5Y cells were grown on uncoated glass coverslips, transfected with wild-type CaNA/B for 24 hours and treated for 15 min with 1 μM ionomycin (Sigma) or left untreated. Cells were fixed with 4% paraformaldehyde-PHEM buffer for 20 min (in mM: PIPES, 120; HEPES, 50, EGTA, 20; Mg-acetate 4) and incubated with antiphospho-S421-huntingtin-763 (1:100) and anti-CaNA (1:200; Cat#C1956, Sigma) antibodies. Pictures were captured with a three-dimensional deconvolution imaging system as previously described (Gauthier et al., 2004). Mean fluorescence intensity of the phospho-S421 signal was next quantified using Metamorph software (Universal Imaging Corp, Princeton, N.J., USA). For each pair of cells (transfected/non transfected), signal from the transfected cell was standardized by giving a value of 100 to the non-transfected cell. Only non-mitotic cells of the same approximate size were considered. More than 30 cells in total were analyzed in two independent experiments.

[7] = molecular target: GST-huntingtin (amino acids 384 to 467 of human huntingtin fused to GST), before phosphorylation (UniProt P42858)

Compound: C=CC[C@@H]1/C=C(\C)C[C@H](C)C[C@H](OC)[C@H]2O[C@@](O)(C(=O)C(=O)N3CCCC[C@H]3C(=O)O[C@H](/C(C)=C/[C@@H]3CC[C@@H](O)[C@H](OC)C3)[C@H](C)[C@@H](O)CC1=O)[C@H](C)C[C@@H]2OC [FK506]
- time for which S421 phosphorylation remained sustained [1]: at least 6 hours

Compound: purified calcineurin (native protein isolated from bovine brain)
- dephosphorylation of S421 (immunoblot with the anti-phospho-huntingtin-S421-763 antibody) [2]: calcineurin dephosphorylates S421 of huntingtin in vitro in a time and dose-dependent manner

Compound: IGF-1: IGF-1, activator of the IGF-1/Akt pathway
- mean velocity of BDNF-containing vesicles [3]: statistically significant increase in the velocity of BDNF vesicles; also recorded: significantly increases the mean velocity
- pausing time of BDNF-containing vesicles [3]: decreased the pausing time; also recorded: decreases their pausing time
- pausing time of BDNF-containing vesicles [4]: decreasing pausing time; also recorded: decreases pausing time
- velocity of BDNF-containing vesicles [4]: statistically increasing velocity; also recorded: increases velocity

Compound: CCC(C)(C)C(=O)C(=O)N1CCC[C@H]1C(=O)OCCCc1cccnc1 [GPI-1046]
- outcome of clinical trials (Parkinson's disease): have failed

Compound: C[C@H](CCC(=O)O)C[C@H](C)C[C@H](C)C(=O)/C=C(\O)[C@H](C)C[C@H](C)C/C=C/[C@@H](C)[C@@H](O)[C@@H](C)[C@@H](O)C[C@@H]1CC[C@@](C)([C@H]2CC[C@@](C)([C@@H](C)O)O2)O1 [ionomycin]
- S421 phosphorylation after ionomycin [5]: rapid dephosphorylation of huntingtin on S421
- huntingtin S421 phosphorylation (mean fluorescence intensity) [6]: reduction of huntingtin phosphorylation at S421
- huntingtin S421 phosphorylation (mean fluorescence intensity) ([6]; listed as Ionomycin): decreased huntingtin S421 phosphorylation

Compound: recombinant Akt
- phosphorylation of S421 (in vitro kinase assay, immunoblot) [7]: resulting in the phosphorylation of GST-huntingtin at S421

Reference: patent US20080300178A1, “Method For Treating Huntington's Disease by Inhibiting Dephosphorylation of Huntingtin at S421” (Insitut Curie, priority 2006, published 2008)
